According to patent publication US20240336608A1, “IL4I1 INHIBITORS AND METHODS OF USE” (Merck Sharp & Dohme LLC, priority 2023, published 2024):

Biological target: T1, recombinant IL4I1 (Homo sapiens, UniProt Q96RQ9)
T1 construct: purchased R&D Systems 5684-AO-020
T1 sequence (Q96RQ9 22-567): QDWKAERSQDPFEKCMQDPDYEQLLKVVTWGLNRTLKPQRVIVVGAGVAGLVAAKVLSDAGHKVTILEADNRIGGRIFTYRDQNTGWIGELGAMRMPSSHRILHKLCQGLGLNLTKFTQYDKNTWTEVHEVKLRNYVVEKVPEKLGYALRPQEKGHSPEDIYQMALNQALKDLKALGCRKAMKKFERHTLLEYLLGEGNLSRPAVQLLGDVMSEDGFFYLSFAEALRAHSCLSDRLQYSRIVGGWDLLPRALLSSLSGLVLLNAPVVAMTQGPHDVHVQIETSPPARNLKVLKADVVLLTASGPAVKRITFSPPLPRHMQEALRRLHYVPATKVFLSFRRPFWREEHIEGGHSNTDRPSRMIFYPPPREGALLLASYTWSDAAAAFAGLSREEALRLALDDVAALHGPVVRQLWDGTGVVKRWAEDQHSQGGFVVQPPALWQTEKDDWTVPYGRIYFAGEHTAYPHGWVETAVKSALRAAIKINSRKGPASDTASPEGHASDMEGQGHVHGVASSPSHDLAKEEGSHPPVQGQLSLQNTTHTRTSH
Test: IL4I1 Enzymatic Assay (Amplex Red/HRP coupled detection of H2O2, fluorescence)
Type: biochemical
Details: 1 nM recombinant IL4I1; four-hour pre-incubation with compound; 1 mM each Phe, Tyr, Trp; ten-point titration
Method in brief: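 H2O2 output was coupled to resorufin fluorescence (ex 544/em 590) via 0.05 mM Amplex Red and 1 U/mL HRP. Substrate: Phe, Tyr, Trp at 1 mM each; enzyme 1 nM, 4 h compound pre-incubation, 120 min reaction, pH 7.0 Hepes. EC50 by nonlinear four-parameter regression, 1:3 ten-point titration.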

Row | Structure (SMILES) | EC50
1 | O=C(NCc1nnc(-c2ccccc2)s1)c1nnn2ccccc12 [Example 239, N-((5-phenyl-1,3,4-thiadiazol-2-yl)methyl)-[1,2,3]triazolo[1,5-a]pyridine-3-carboxamide] | 591 nM
2 | Cn1cc(C(=O)NCc2nnc(-c3cn[nH]c3)s2)nn1 [Example 299, N-((5-(1H-pyrazol-4-yl)-1,3,4-thiadiazol-2-yl)methyl)-1-methyl-1H-1,2,3-triazole-4-carboxamide] | 215 nM
3 | Cn1cc(C(=O)NCc2cc(-c3ccccc3Cl)no2)nn1 [Example 224, N-{[3-(2-chlorophenyl)-1,2-oxazol-5-yl]methyl}-1-methyl-1H-1,2,3-triazole-4-carboxamide] | 832 nM
4 | CC(NC(=O)c1cn(C2CC2)nn1)c1nnc(-c2ccccc2)s1 (single isomer, unassigned) [Example 245, 1-cyclopropyl-N-(1-(5-phenyl-1,3,4-thiadiazol-2-yl)ethyl)-1H-1,2,3-triazole-4-carboxamide] | 23 nM
5 | CC(C)(C(N)=O)n1cc(C(=O)NCc2cc(-c3ccccc3)on2)nn1 [Example 271, 1-(1-amino-2-methyl-1-oxopropan-2-yl)-N-((5-phenylisoxazol-3-yl)methyl)-1H-1,2,3-triazole-4-carboxamide] | 27 nM
6 | COCC[C@@H](C)n1cc(C(=O)NCc2nnc(-c3ccccc3)s2)nn1 [Example 65, (R)-1-(4-methoxybutan-2-yl)-N-((5-phenyl-1,3,4-thiadiazol-2-yl)methyl)-1H-1,2,3-triazole-4-carboxamide] | 68 nM
7 | O=C(NCc1cc(-c2ccncc2)on1)c1cn(C2CC2)nn1 [Example 246, 1-cyclopropyl-N-((5-(pyridin-4-yl)isoxazol-3-yl)methyl)-1H-1,2,3-triazole-4-carboxamide] | 104 nM
8 | COc1ccsc1C(=O)NCc1nnc(-c2ccccc2)s1 [Example 29, 3-methoxy-N-[(5-phenyl-1,3,4-thiadiazol-2-yl)methyl]thiophene-2-carboxamide] | 10 nM
9 | O=C(NCc1nnc(-c2ccccc2)s1)c1cn(Cc2cc[nH]n2)nn1 [Example 156, 1-((1H-pyrazol-3-yl)methyl)-N-((5-phenyl-1,3,4-thiadiazol-2-yl)methyl)-1H-1,2,3-triazole-4-carboxamide] | 8 nM
10 | N#CC1(Cn2cc(C(=O)NCc3nnc(-c4ccccc4)s3)nn2)CC1 [Example 87, 1-((1-cyanocyclopropyl)methyl)-N-((5-phenyl-1,3,4-thiadiazol-2-yl)methyl)-1H-1,2,3-triazole-4-carboxamide] | 18 nM
11 | CC(C)CCn1cc(C(=O)NCc2nnc(-c3ccccc3)s2)nn1 [Example 94, 1-isopentyl-N-((5-phenyl-1,3,4-thiadiazol-2-yl)methyl)-1H-1,2,3-triazole-4-carboxamide] | 68 nM
12 | CC(C)(C(N)=O)n1cc(C(=O)NCc2nnc(-c3ccccc3)s2)nn1 [Example 312, 1-(1-amino-2-methyl-1-oxopropan-2-yl)-N-((5-phenyl-1,3,4-thiadiazol-2-yl)methyl)-1H-1,2,3-triazole-4-carboxamide] | 12 nM
13 | O=C(NCc1nnc(-c2ccccc2)s1)c1cn(CCF)nn1 [Example 80, 1-(2-fluoroethyl)-N-((5-phenyl-1,3,4-thiadiazol-2-yl)methyl)-1H-1,2,3-triazole-4-carboxamide] | 2 nM
14 | CC(c1ccno1)n1cc(C(=O)NCc2nnc(-c3ccccc3)s2)nn1 (stereo not shown) [Example 155, 1-(1-(isoxazol-5-yl)ethyl)-N-((5-phenyl-1,3,4-thiadiazol-2-yl)methyl)-1H-1,2,3-triazole-4-carboxamide] | 13 nM
15 | C[C@H](C(F)F)n1cc(C(=O)NCc2nnc(-c3ccccc3)s2)nn1 [Example 168, (R)-1-(1,1-difluoropropan-2-yl)-N-((5-phenyl-1,3,4-thiadiazol-2-yl)methyl)-1H-1,2,3-triazole-4-carboxamide] | 7 nM
16 | Cc1ccc(-n2cc(C(=O)NCc3nnc(-c4ccccc4)s3)nn2)c(Cl)n1 [Example 278, 1-(2-chloro-6-methylpyridin-3-yl)-N-((5-phenyl-1,3,4-thiadiazol-2-yl)methyl)-1H-1,2,3-triazole-4-carboxamide] | 15 nM
17 | Cn1cc(C(=O)NCc2nnc(-c3cncs3)s2)nn1 [Example 297, 1-methyl-N-((5-(thiazol-5-yl)-1,3,4-thiadiazol-2-yl)methyl)-1H-1,2,3-triazole-4-carboxamide] | 79 nM

Row | Structure (SMILES) | EC50
18 | CC(NC(=O)c1cn(C)nn1)c1nnc(-c2ccccc2)s1 (single isomer, unassigned) [Example 258, 1-methyl-N-(1-(5-phenyl-1,3,4-thiadiazol-2-yl)ethyl)-1H-1,2,3-triazole-4-carboxamide] | 492 nM
19 | CC(CC(F)(F)F)n1cc(C(=O)NCc2nnc(-c3ccccc3)s2)nn1 (single isomer, unassigned) [Example 64, N-((5-phenyl-1,3,4-thiadiazol-2-yl)methyl)-1-(4,4,4-trifluorobutan-2-yl)-1H-1,2,3-triazole-4-carboxamide] | 93 nM
20 | O=C(NCc1nnc(-c2ccccc2)s1)c1cnnn1C1CCOC1 (stereo not shown) [Example 306, N-((5-phenyl-1,3,4-thiadiazol-2-yl)methyl)-1-(tetrahydrofuran-3-yl)-1H-1,2,3-triazole-5-carboxamide] | 654 nM
21 | CC(C)c1cc(C(=O)NCc2nnc(-c3ccccc3)s2)on1 [Example 49, 3-isopropyl-N-[(5-phenyl-1,3,4-thiadiazol-2-yl)methyl]isoxazole-5-carboxamide] | 22 nM
22 | Cc1nc(N)ccc1-n1cc(C(=O)NCc2nnc(-c3ccccc3)s2)nn1 [Example 342, 1-(6-amino-2-methylpyridin-3-yl)-N-((5-phenyl-1,3,4-thiadiazol-2-yl)methyl)-1H-1,2,3-triazole-4-carboxamide] | 5 nM
23 | O=C(NCc1nnc(-c2ccccc2)s1)c1cn(CC2(CO)CC2)nn1 [Example 343, 1-((1-(hydroxymethyl)cyclopropyl)methyl)-N-((5-phenyl-1,3,4-thiadiazol-2-yl)methyl)-1H-1,2,3-triazole-4-carboxamide] | 92 nM
24 | O=C(NCc1nnc(-c2ccccc2)s1)c1c[nH]c(C2CC2)n1 [Example 11, 2-cyclopropyl-N-((5-phenyl-1,3,4-thiadiazol-2-yl)methyl)-1H-imidazole-4-carboxamide] | 265 nM
25 | O=C(NCc1nnc(-c2ccccc2)s1)c1cn(C2C[C@@H]2C(F)F)nn1 (single isomer, unassigned) [Example 144, Trans-1-(-2-(difluoromethyl)cyclopropyl]-N-[(5-phenyl-1,3,4-thiadiazol-2-yl)methyl]-1H-1,2,3-triazole-4-carboxamide] | 383 nM
26 | CNC(=O)C1(n2cc(C(=O)NCc3nnc(-c4ccccc4)s3)nn2)CC1 [Example 162, 1-(1-(methylcarbamoyl)cyclopropyl)-N-((5-phenyl-1,3,4-thiadiazol-2-yl)methyl)-1H-1,2,3-triazole-4-carboxamide] | 120 nM
27 | Cc1ccc(-n2cc(C(=O)NCc3nnc(-c4ccccc4)s3)nn2)c(N)n1 [Example 340, 1-(2-amino-6-methylpyridin-3-yl)-N-((5-phenyl-1,3,4-thiadiazol-2-yl)methyl)-1H-1,2,3-triazole-4-carboxamide] | 36 nM
28 | N#CCCCn1cc(C(=O)NCc2nnc(-c3ccccc3)s2)nn1 [Example 84, 1-(3-cyanopropyl)-N-((5-phenyl-1,3,4-thiadiazol-2-yl)methyl)-1H-1,2,3-triazole-4-carboxamide] | 52 nM
29 | O=C(NCc1nnc(-c2ccccc2)s1)c1cn(C2CS(=O)(=O)CC2O)nn1 (stereo not shown) [Example 188, 1-(4-hydroxy-1,1-dioxidotetrahydrothiophen-3-yl)-N-((5-phenyl-1,3,4-thiadiazol-2-yl)methyl)-1H-1,2,3-triazole-4-carboxamide] | 155 nM
30 | Cc1ccc(-n2cc(C(=O)NCc3nnc(-c4cccc(F)c4C)s3)nn2)c(C)n1 [Example 110, 1-(2,6-dimethylpyridin-3-yl)-N-((5-(3-fluoro-2-methylphenyl)-1,3,4-thiadiazol-2-yl)methyl)-1H-1,2,3-triazole-4-carboxamide] | 312 nM
31 | N#CCn1cc(C(=O)NCc2nnc(-c3ccccc3)s2)nn1 [Example 74, 1-(cyanomethyl)-N-((5-phenyl-1,3,4-thiadiazol-2-yl)methyl)-1H-1,2,3-triazole-4-carboxamide] | 14 nM
32 | Cc1ccc(-n2cc(C(=O)NCc3nnc(-c4ccncc4)s3)nn2)c(C)n1 [Example 265, 1-(2,6-dimethylpyridin-3-yl)-N-((5-(pyridin-4-yl)-1,3,4-thiadiazol-2-yl)methyl)-1H-1,2,3-triazole-4-carboxamide] | 16 nM
33 | Cc1ccc(-n2cc(C(=O)NCc3nnc(-c4ccccc4)s3)nn2)cn1 [Example 267, 1-(6-methylpyridin-3-yl)-N-((5-phenyl-1,3,4-thiadiazol-2-yl)methyl)-1H-1,2,3-triazole-4-carboxamide] | 145 nM
34 | Cn1cc(C(=O)NCc2nnc(N3CCCCC3)s2)nn1 [Example 294, 1-methyl-N-((5-(piperidin-1-yl)-1,3,4-thiadiazol-2-yl)methyl)-1H-1,2,3-triazole-4-carboxamide] | 251 nM
